Assay results as given in patent US6376510B1, “Neuromuscular relaxants” (Newlaxant LLC, priority 1997, dated 2002).
Like-named read-outs stand apart in the source and are kept apart here.

Key:
[1] = test system: anesthetized cats (evoked responses of anterior tibial muscle); assay: animal or person; conditions: for ED50: Felis catus, iv; for VB (vagal block) / ΔBP (change in arterial blood pressure) / ΔH (change in heart rate) / RI (recovery index) / Onset: cat; for VB (vagal block) / ΔBP (change in arterial blood pressure) / ΔH (change in heart rate): at 80-85% neuromuscular blocking dose; for RI (recovery index): spontaneous recovery, 25-75% neuromuscular response; for Onset: time to 80-85% neuromuscular block
Text: (§1) a) Adult, male albino rats were anesthetized with pentobarbital injected intraperitoneally. The trachea was cannulated for artificial respiration via a small animal respirator. The carotid artery was cannulated for recording blood pressure via a transducer and heart rate by a cardiotachograph on a polygraph. One external jugular vein was cannulated for i.v. drug administration. Neuromuscular function was monitored by electromyography, recording evoked responses from the anterior tibial muscle as a result of supramaximal nerve stimuli consisting of single or “train-of-four” rectangular pulses of 0.1-0.2 msec duration every 10-12 seconds, delivered to the sciatic or common peroneal nerve by a laboratory nerve stimulator. Another mode of stimulation included repeated single stimuli delivered at 0.1 Hz or 1 Hz. […] The agents were dissolved in physiologic saline and injected intravenously at appropriate time intervals. The intensity, onset, and duration of neuromuscular block and its type were determined with each agent. Through administering several doses, the doses corresponding to 50%, 80% and 90% neuromuscular block were determined. All agents were compared with selected standard neuromuscular blocking compounds, e.g. succinylcholine, pancuronium, mivacurium, or rocuronium.
(§2) Onset=time in minutes to 80-85% neuromuscular block.
(§3) RI=recovery index, minutes, spontaneous recovery, 25-75% neuromuscular response.
(§4) VB=vagal block, %, at 80-85% neuromuscular blocking dose.
(§5) ΔHR=change in heart rate, %, at 80-85% neuromuscular blocking dose.
(§6) ΔBP=change in arterial blood pressure, %, at 80-85% neuromuscular blocking dose.
b) Adult cats were anesthetized with a mixture of 70 mg/kg alpha chloralose and 0.5 g/kg ethylurethane intraperitoneally. One thigh was fixed in a vertical position by means of a pin at the lower end of the femur. Needle electrodes were placed on the sciatic or the common peroneal nerve. A tendon of the anterior tibial muscle was attached to a force transducer and the muscle responses evoked, as described under a), were recorded. Both electromyographic and mechanomyographic responses can be quantified. Blood pressure and heart rate changes were recorded from appropriately cannulated arteries via a blood pressure transducer and cardiotachograph.

[2] = test system: anesthetized rats (evoked responses of anterior tibial muscle); assay: In vivo neuromuscular block and cardiovascular side effects, anesthetized rat (Example 8, Table 3); conditions: for RI (recovery index): spontaneous recovery, 25-75% neuromuscular response; for Onset: time to 80-85% neuromuscular block
Text: The neuromuscular blocking activity and other effects (e.g. cardiovascular side effects) of selected agents were investigated on several different experimental animals. Justification for this approach lies in the commonly known fact that the pharmacodynamic and pharmacokinetic properties of these agents are markedly variable from species to species. Therefore, the most important aspects of the projected therapeutic utility of these agents, e.g., neuromuscular blocking potency, onset and duration of action, and side effects cannot be ascertained in “in vitro” preparations or by using only one species of animals.
as §1, §2, §3, §4, §5, §6

rabbits = assay: In vivo neuromuscular block and cardiovascular side effects, rabbit (Example 8, Table 7); conditions: for ED50: intravenous dose causing 50% neuromuscular block; for RI (recovery index): spontaneous recovery, 25-75% neuromuscular response; for Onset: time to 80-85% neuromuscular block
anesthetized monkeys = assay: In vivo neuromuscular block and cardiovascular side effects, monkey (Example 8, Table 6)
Text: (§7) Both electromyographic and mechanomyographic responses can be quantified.
(§8) The techniques described under a) and b) were employed in other species as needed with the modification that juvenile pigs were initially anesthetized with inhalation of halothane (Table 5) and monkeys were initially sedated with intramuscular ketamine injections prior to inducing and maintaining general anesthesia using pentobarbital and propofol administered intravenously (Table 6).

[3] = test system: anesthetized juvenile pigs; assay: animal or person; format: in vivo; conditions: pig; for ED50: intravenous dose causing 50% neuromuscular block; for RI (recovery index): spontaneous recovery, 25-75% neuromuscular response; for Onset: time to 80-85% neuromuscular block
Text: as §7, §8

[4] = rat, intravenous dose causing 50% neuromuscular block
[5] = rat, at 80-85% neuromuscular blocking dose
[6] = Oryctolagus cuniculus, read-out: ED50
[7] = at 80-85% neuromuscular blocking dose

SMILES | ED50 [2, 4] [mg/kg] | RI (recovery index) ([2]; rat) [min] | Onset ([2]; rat) [min] | ΔBP (change in arterial blood pressure) (rabbits; in vivo) [%] | ΔH (change in heart rate) (rabbits; in vivo) [%] | ED50 (rabbits) [mg/kg] | RI (recovery index) (rabbits) [min] | Onset (rabbits) [min] | VB (vagal block) ([3]; in vivo) [%] | ΔBP (change in arterial blood pressure) ([3]; in vivo) [%] | ΔH (change in heart rate) ([3]; in vivo) [%] | ED50 [3] [mg/kg] | RI (recovery index) [3] [min] | Onset [3] [min] | ED50 ([2]; Rattus norvegicus, iv) [mg/kg] | VB (vagal block) [2, 5] [%] | ΔBP (change in arterial blood pressure) [2, 5] [%] | ΔH (change in heart rate) [2, 5] [%] | ED50 (rabbits; [6]) [mg/kg] | ΔBP (change in arterial blood pressure) (rabbits; [7]) [%] | also measured
C[N+]1(C)[C@@H]2CC[C@H]1C[C@@H](OC(=O)CCCCCCCCC(=O)O[C@H]1C[C@H]3CC[C@@H](C1)[N+]3(C)C)C2.[I-].[I-] [bis[N-methyltropanium-3α-yl]sebacate diiodide, reference compound] | – | – | – | – | – | – | – | – | – | – | – | – | – | – | – | – | – | – | – | – | ED50 [1]: 0.125 mg/kg; VB (vagal block) [1]: 100%; ΔBP (change in arterial blood pressure) [1]: 0%; ΔH (change in heart rate) [1]: 0%; RI (recovery index) [1]: 3.9 min; Onset [1]: 2.3 min
CC(=O)Oc1ccc(C[N+]2(C)C3CCCC2CC(OC(=O)CCCCCC(=O)OC2CC4CCCC(C2)[N+]4(C)Cc2ccc(OC(C)=O)c(OC(C)=O)c2)C3)cc1OC(C)=O.[Br-].[Br-] (centres unmarked) [bis[N-(3,4-diacetoxybenzyl)granataninium-3-yl]pimelate dibromide] | 0.175 | 0.4 | 0.45 | 0 | 0 | 0.266 | 0.6 | 0.72 | 48 | 0 | 0 | 0.193 | 1 | 0.7 | – | – | – | – | – | – | VB (vagal block) ([2]; rat, in vivo): 0%; ΔBP (change in arterial blood pressure) ([2]; rat, in vivo): 0%; ΔH (change in heart rate) ([2]; rat, in vivo): 0%; ΔBP (change in arterial blood pressure) (anesthetized monkeys; in vivo): 0%; ΔH (change in heart rate) (anesthetized monkeys; in vivo): 0%; ED50 (anesthetized monkeys; intravenous dose causing 50% neuromuscular block): 0.15 mg/kg; RI (recovery index) (anesthetized monkeys; spontaneous recovery, 25-75% neuromuscular response): 0.55 min; Onset (anesthetized monkeys; time to 80-85% neuromuscular block): 1.2 min
CCC(=O)Oc1ccc(C[N+]2(C)[C@@H]3CC[C@H]2C[C@@H](OC(=O)CCCC(=O)O[C@H]2C[C@H]4CC[C@@H](C2)[N+]4(C)Cc2ccc(OC(=O)CC)c(OC(=O)CC)c2)C3)cc1OC(=O)CC.[Br-].[Br-] (stereo partly drawn) [bis[N-(3,4-dipropionyloxybenzyl)tropanium-3α-yl]glutarate dibromide] | – | 0.5 | 0.7 | – | – | – | 0.8 | 1 | – | – | – | – | 0.6 | 1.1 | 0.3 | 0 | 0 | 0 | 0.065 | 0 | ΔH (change in heart rate) (rabbits; [7]): 0%; ED50 ([3]; Sus scrofa, read-out: ED50): 0.45 mg/kg; VB (vagal block) [3, 7]: 70%; ΔBP (change in arterial blood pressure) [3, 7]: 0%; ΔH (change in heart rate) [3, 7]: 0%
COc1cc(C[N+]2(C)[C@@H]3CC[C@H]2C[C@@H](OC(=O)CCCCCCCCCC(=O)O[C@H]2C[C@H]4CC[C@@H](C2)[N+]4(C)Cc2cc(OC)c(OC)c(OC)c2)C3)cc(OC)c1OC.[Br-].[Br-] (stereo partly drawn) [bis[N-(3,4,5-trimethoxybenzyl)tropanium-3α-yl]1,9-nonanedicarboxylate dibromide] | – | 1.8 | 0.8 | – | – | – | 2.5 | 1.3 | – | – | – | – | 2.4 | 1.5 | 0.18 | 10 | 0 | 0 | 0.07 | 0 | ΔH (change in heart rate) (rabbits; [7]): 0%; ED50 ([3]; Sus scrofa, read-out: ED50): 0.31 mg/kg; VB (vagal block) [3, 7]: 40%; ΔBP (change in arterial blood pressure) [3, 7]: 0%; ΔH (change in heart rate) [3, 7]: 0%
CCC(=O)Oc1ccc(C[N+]2(C)C3CCCC2CC(OC(=O)C2CCC2C(=O)OC2CC4CCCC(C2)[N+]4(C)Cc2ccc(OC(=O)CC)c(OC(=O)CC)c2)C3)cc1OC(=O)CC.[Br-].[Br-] (centres unmarked) [bis[N-(3,4-dipropionyloxybenzyl)granataninium-3-yl]cyclobutane-1,2-dicarboxylate dibromide] | 0.155 | 0.35 | 0.45 | 0 | 0 | 0.225 | 0.5 | 0.55 | 18 | 0 | 0 | 0.19 | 0.4 | 0.5 | – | – | – | – | – | – | VB (vagal block) ([2]; rat, in vivo): 0%; ΔBP (change in arterial blood pressure) ([2]; rat, in vivo): 0%; ΔH (change in heart rate) ([2]; rat, in vivo): 0%
CCC(=O)Oc1ccc(C[N+]2(C)[C@@H]3CC[C@H]2C[C@@H](OC(=O)C2CCC2C(=O)O[C@H]2C[C@H]4CC[C@@H](C2)[N+]4(C)Cc2ccc(OC(=O)CC)c(OC(=O)CC)c2)C3)cc1OC(=O)CC.[Br-].[Br-] (stereo partly drawn) [bis[N-(3,4-dipropionyloxybenzyl)tropanium-3α-yl]cyclobutane-1,2-dicarboxylate dibromide] | – | 0.6 | 0.6 | – | – | – | 0.5 | 0.87 | – | – | – | – | 0.6 | 0.7 | 0.238 | 17 | 0 | 0 | 0.128 | 0 | ΔH (change in heart rate) (rabbits; [7]): 0%; ED50 ([3]; Sus scrofa, read-out: ED50): 0.317 mg/kg; VB (vagal block) [3, 7]: 50%; ΔBP (change in arterial blood pressure) [3, 7]: 0%; ΔH (change in heart rate) [3, 7]: 0%
C[N+]1(CC2CC2)[C@@H]2CC[C@H]1C[C@@H](OC(=O)CCCCCCC(=O)O[C@H]1C[C@H]3CC[C@@H](C1)[N+]3(C)CC1CC1)C2.[Br-].[Br-] (stereo partly drawn) [bis[N-(cyclopropylmethyl)tropanium-3α-yl]suberate dibromide, reference compound] | – | – | – | – | – | – | – | – | – | – | – | – | – | – | – | – | – | – | – | – | ED50 [1]: 0.155 mg/kg; VB (vagal block) [1]: 80%; ΔBP (change in arterial blood pressure) [1]: 0%; ΔH (change in heart rate) [1]: 0%; RI (recovery index) [1]: 9 min; Onset [1]: 1.4 min
CC(=O)Oc1ccc(C[N+]2(C)C3CCC2CC(OC(=O)C2C4C=CC(C4)C2C(=O)OC2CC4CCC(C2)[N+]4(C)Cc2ccc(OC(C)=O)c(OC(C)=O)c2)C3)cc1OC(C)=O.[Br-].[Br-] (stereo not drawn) [bis[N-(3,4-diacetoxybenzyl)tropanium-3β-yl]trans-3,6-endomet] [bis[N-(3,4-diacetoxybenzyl)tropanium-3β-yl]trans-3,6-endomethylene-1,2,3,6-tetrahydrophthalate dibromide] | 0.258 | 0.5 | 0.68 | 0 | 0 | 0.21 | 0.75 | 0.8 | 100 | −5 | −10 | 0.16 | 2 | 1.1 | – | 45 | 0 | 0 | – | – | –
